Results taken from EP1847550A2, “Peptides effective in the treatment of tumors and other conditions requiring the removal or destruction of cells” (NYMOX CORPORATION, priority 2001, dated 2007).
Ends that are not written are not given here.

Tests used:
[1] = test system: Rat prostate; assay: Intraprostatic infusion in rats, histology of the prostate gland after 72 hours; type: in vivo; settings: 300 µl of 1 mg/mL in PBS pH 7.4 (1.0 mg/kg), sacrificed after 72 hours, H & E histology
Experimental: Four rats were anesthetized with ether and given NTP peptide #7 by intraprostatic infusion. The injections consisted of 300 µl of NTP peptide #7 1 mg/mL in PBS pH 7.4. (1.0 mg/kg). Controls received injections of PBS alone or no injection. Rats were painlessly sacrificed after 72 hours. Prostate glands were dissected, fixed in 10% buffered formalin for 24 hours, embedded in paraffin, sectioned, and stained with H & E. For each animal the entire prostate gland was embedded and sectioned. All stained sections were examined histologically.
Normal rats were injected in the prostate as in the above Example 2, except they were injected with NTP peptide #17. Rats were painlessly sacrificed after 72 hours and their prostate glands were examined as in Example 2.

[2] = test system: muscle tissue, subcutaneous connective tissue, and dermis; assay: Injection into skin, subcutaneous tissue and extremity skeletal muscle of normal rats, histopathology of injection foci at 24 hours; type: in vivo
Excerpt: The individual foci of infiltration were excised, fixed in 10% formalin, embedded in paraffin, and stained and examined by standard histopathological methods.
The controls received saline alone.
Tissues were excised, fixed in 10% formalin, embedded in paraffin, and stained and examined by standard histopathological methods.

LSLPSSWDYG [NTP peptide #7, AD7c-NTP p335-343]
effect on tissue at sites of injection (prostate) [1]: necrosis of tissue at the injection sites with loss of glandular epithelium, flattening and atrophy | effect on tissue at sites of injection ([2]; injected in skin, subcutaneously and in extremity skeletal muscle, in saline, at 0.1-1 mg/mL, sacrificed at 24 hours): produced necrosis of tissue at the injection sites | spread of necrosis beyond the site of injection ([2]; skin, subcutaneous and skeletal muscle injection, 24 hours): did not appear to spread far beyond the site of injection
